A word on the Emax: it is the greatest response seen or fitted, relative to the assay's reference.

“And” between values parts separate entries of the source, which are not always exact repeats. Equal values may be shown once. Read-outs that look alike come from different tables or passages of the source.

For the assay, the target named is T1, GPR139 (arrestin-3 recruitment) (Homo sapiens, UniProt Q6DWJ6).
T1 construct: expressed in transfected cells; host or cells: HEK293A (transient, Lipofectamine 2000)
T1 sequence (Q6DWJ6 1-353): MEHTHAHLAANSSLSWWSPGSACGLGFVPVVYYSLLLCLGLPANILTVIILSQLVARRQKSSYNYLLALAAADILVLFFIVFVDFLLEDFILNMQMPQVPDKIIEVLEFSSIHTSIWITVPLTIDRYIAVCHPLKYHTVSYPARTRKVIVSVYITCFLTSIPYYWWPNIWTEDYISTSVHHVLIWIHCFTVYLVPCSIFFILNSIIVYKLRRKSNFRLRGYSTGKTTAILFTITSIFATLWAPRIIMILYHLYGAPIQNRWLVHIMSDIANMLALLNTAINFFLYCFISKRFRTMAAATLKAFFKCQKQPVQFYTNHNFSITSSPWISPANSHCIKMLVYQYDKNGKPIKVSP
The assay is described as follows: Arrestin-3 recruitment assay (enhanced bystander BRET), HEK293A. It is filed as cell-based. The note with it: for Emax: HEK293-A, normalized to JNJ-63533054 (JNJ(S)); for EC50: read-out: pEC50 Arrestin-3 (converted); for Arrestin-3 recruitment: individual replicates. As to the method:
Primary screening and pharmacological characterization of compounds were performed using a CHO-K1 cell line that stably expresses human GPR139 (GPR139-CHOk1). The GPR139-CHOk1 cell line was kindly provided by H. Lundbeck A/S, Denmark[24]. GPR139-CHOk1 cells were grown in Ham’s F-12 Kaighn’s Modification Medium (ThermoFisher #21127030) supplemented with 10% dialyzed fetal bovine serum (US origin, ThermoFisher #26400044), 100 units/mL Penicillin-Streptomycin (ThermoFisher #15140122), and 1 mg/mL Geneticin (ThermoFisher #11811031). […] M1R-CHOk1 cells were purchased from The Missouri S&T cDNA Resource Center (#CEM100TN00). M1R-CHOk1 cells were grown in Ham’s F12 Medium (ThermoFisher #21765029) supplemented with 10% fetal bovine serum (Brazilian origin, ThermoFisher #10270106), 100 units/mL Penicillin-Streptomycin, and 0.25 mg/mL Geneticin. HEK293A cells transiently transfected with GPR139 were used for additional pharmacological assessment of signaling pathways activated by GPR139. HEK239A cells were generously provided by Dr. Asuka Inoue, Tohoku University, Japan. HEK293A cells were grown in Dulbecco’s Modified Eagle Medium (ThermoFisher #31966047) supplemented with 10% dialyzed fetal bovine serum and 100 units/mL Penicillin-Streptomycin. Cell lines were maintained at 37 °C in humidified incubator equilibrated with 5% CO2.
The enhanced bystander BRET arrestin recruitment assay developed by the work of Donthamsetti et al.[58] was used to measure the arrestin-3 recruitment by GPR139. HEK293A cells were reverse transfected 20–24 h prior to the assay. 50,000 cells were plated in each well of white opaque tissue culture treated 96-well plates (PerkinElmer #6005680) previously coated with poly-D-lysine. The transfection solutions were prepared as described, and 10 µL transfection solution was mixed with 100 µL cells in each well. The cells in each well were transfected with 6 ng GPR139, 0.6 ng RLuc8-Arrestin3-Sp1, 6 ng GRK5, and 62.5 ng MEMlinker[doubly palmitoylated fragment of GAP43]-Citrine-SH3 using 200 nL Lipofectamine 2000 Transfection Reagent. Each transfection was normalized to 80 ng total DNA with pcDNA3.1. On the day of the experiment, the cells were washed with HEPES buffer and incubated for 2 h in HEPES buffer prior to measurements. Test compounds were diluted in HEPES buffer from DMSO stocks (final DMSO concentration of maximally 0.3%). Renilla luciferase 8 (RLuc8) substrate Coelenterazine h (Cayman Chemical #16894) was diluted in HEPES buffer to 5 µM (final). Coelenterazine h was added, and the cells were incubated for 5 min followed by stimulation with test compounds. Simultaneous dual emission was measured at 535 nm and 475 nm on LUMIstar Omega Microplate Reader (BMG Labtech) at 37 °C over 30 min. The BRET ratio of 535 nm/475 nm (Citrine/RLuc8), reflecting the translocation of arrestin from the cytosol to the membrane, was used to determine the arrestin recruitment. The BRET response-time course area under the curve of the basal response obtained with buffer condition was subtracted from the absolute response at a given test compound concentration, and the responses were normalized to the one obtained with 10 µM JNJ-63533054.
Pharmacological data and statistical analyses were performed in GraphPad Prism v9–10 (Graphpad Software Inc., San Diego, CA), which are also specifically described in the figure and table legends. The functional assay responses were normalized to buffer (0%) and Lundbeck Cmp 1a or JNJ-63533054 (100%), for Ca^2+ and IP1 experiments in the GPR139-CHOk1 stable cell line or Ca^2+, G protein activation, and arrestin-3 recruitment experiments in the HEK293A cells transiently transfected with GPR139, respectively. Data are from at least three independent experiments, unless stated otherwise. Concentration-response curves were fitted applying non-linear regression using the log (agonist) versus response model with variable slope. ANOVA was applied for comparing results and determining statistical significance. […]
In general terms: Arrestin recruitment assays detect the binding of arrestin to an activated receptor.

Turning to `Cc1cscc1-c1nc(CC(=O)N[C@H](C)c2ccccc2)no1` [1.1(R)], the Emax was found to be 81 ± 5%. In addition, the EC50 (Supplementary Table 6) is 2.51 µM. Under “log [compound] M -4.5”, the Arrestin-3 recruitment is 72 % of JNJ-63533054 and 73 % of JNJ-63533054 and 89 % of JNJ-63533054. Moreover, the Arrestin-3 recruitment (log [compound] M -5.0) was 69 % of JNJ-63533054 and 65 % of JNJ-63533054 (2×). Further, under “log [compound] M -5.5”, the Arrestin-3 recruitment is 54 % of JNJ-63533054 and 40 % of JNJ-63533054 and 41 % of JNJ-63533054. Also, where the note is “log [compound] M -6.0”, the Arrestin-3 recruitment was 36 % of JNJ-63533054 and 10 % of JNJ-63533054 and 17 % of JNJ-63533054. For the same compound, the Arrestin-3 recruitment (log [compound] M -6.5) is 17 % of JNJ-63533054 and 3.28 % of JNJ-63533054 and 1.44 % of JNJ-63533054. In addition, for the setting “log [compound] M -7.0”, the Arrestin-3 recruitment is 12 % of JNJ-63533054 and 3.28 % of JNJ-63533054 and 2 % of JNJ-63533054. Besides, the Arrestin-3 recruitment (log [compound] M -7.5) was 1.13 % of JNJ-63533054 and 0.124 % of JNJ-63533054 and 0.145 % of JNJ-63533054.
As to `Cc1cscc1-c1nc(CC(=O)N[C@@H](C)c2ccccc2)no1` [1.1(S)], the Emax was found to be 96 ± 1%. Also, the EC50 (Supplementary Table 6) was 0.0794 µM. In addition, the Arrestin-3 recruitment (log [compound] M -4.5) is 96 % of JNJ-63533054 and 88 % of JNJ-63533054 and 101 % of JNJ-63533054. Further, for the setting “log [compound] M -5.0”, the Arrestin-3 recruitment was 90 % of JNJ-63533054 and 91 % of JNJ-63533054 (2×). In addition, under “log [compound] M -5.5”, the Arrestin-3 recruitment was 89 % of JNJ-63533054 and 102 % of JNJ-63533054 and 91 % of JNJ-63533054. In addition, the Arrestin-3 recruitment (log [compound] M -6.0) is 109 % of JNJ-63533054 and 107 % of JNJ-63533054 and 84 % of JNJ-63533054. Moreover, the Arrestin-3 recruitment (log [compound] M -6.5) was 82 % of JNJ-63533054 and 87 % of JNJ-63533054 and 66 % of JNJ-63533054. The Arrestin-3 recruitment (log [compound] M -7.0) was 57 % of JNJ-63533054 and 71 % of JNJ-63533054 and 50 % of JNJ-63533054. Besides, under “log [compound] M -7.5”, the Arrestin-3 recruitment was 23 % of JNJ-63533054 and 32 % of JNJ-63533054 and 4.63 % of JNJ-63533054.
In the case of `C[C@@H](NC(=O)CNC(=O)c1cccc(Cl)c1)c1ccccc1` [JNJ(R), reference compound], the EC50 was 15.8 µM. Also, under “log [compound] M -4.5”, the Arrestin-3 recruitment was 43 % of JNJ-63533054 and 70 % of JNJ-63533054 and 77 % of JNJ-63533054. Besides, the Arrestin-3 recruitment (log [compound] M -5.0) is 41 % of JNJ-63533054 and 39 % of JNJ-63533054 and 33 % of JNJ-63533054. Further, the Arrestin-3 recruitment (log [compound] M -5.5) is 37 % of JNJ-63533054 and 35 % of JNJ-63533054 and 17 % of JNJ-63533054. Further, for the setting “log [compound] M -6.0”, the Arrestin-3 recruitment was 20 % of JNJ-63533054 and 22 % of JNJ-63533054 and 12 % of JNJ-63533054. The Arrestin-3 recruitment (log [compound] M -6.5) was 14 % of JNJ-63533054 and 8 % of JNJ-63533054 and 1.75 % of JNJ-63533054. Moreover, the Arrestin-3 recruitment (log [compound] M -7.0) was 4 % of JNJ-63533054 and 10 % of JNJ-63533054 and 2 % of JNJ-63533054. Further, where the note is “log [compound] M -7.5”, the Arrestin-3 recruitment is 0 % of JNJ-63533054 (2×) and 0.153 % of JNJ-63533054.
Consider `CC(NC(=O)CNC(=O)c1cccc(Cl)c1)c1ccccc1` (centres unmarked) [JNJ-63533054, reference compound], for which the Emax was found to be 100 ± 4%. For the same compound, the EC50 (Supplementary Table 6) was 0.158 µM. In addition, the Arrestin-3 recruitment (log [compound] M -4.5, listed as JNJ (S)) is 94 % of JNJ-63533054 and 101 % of JNJ-63533054 and 107 % of JNJ-63533054. For the same compound, the Arrestin-3 recruitment (log [compound] M -5.0, listed as JNJ (S)) was 95 % of JNJ-63533054 and 99 % of JNJ-63533054 and 103 % of JNJ-63533054. The Arrestin-3 recruitment (log [compound] M -5.5, listed as JNJ (S)) was 90 % of JNJ-63533054 and 100 % of JNJ-63533054 and 94 % of JNJ-63533054. Further, under “log [compound] M -6.0, listed as JNJ (S)”, the Arrestin-3 recruitment is 85 % of JNJ-63533054 and 100 % of JNJ-63533054 and 78 % of JNJ-63533054. Moreover, the Arrestin-3 recruitment (log [compound] M -6.5, listed as JNJ (S)) was 68 % of JNJ-63533054 and 81 % of JNJ-63533054 and 55 % of JNJ-63533054. Where the note is “log [compound] M -7.0, listed as JNJ (S)”, the Arrestin-3 recruitment was 45 % of JNJ-63533054 (2×) and 36 % of JNJ-63533054. The Arrestin-3 recruitment (log [compound] M -7.5, listed as JNJ (S)) was 8 % of JNJ-63533054 and 15 % of JNJ-63533054 and 0.123 % of JNJ-63533054.

Source of the values: PMC12775434, “Ultra-large virtual screening unveils potent agonists of the neuromodulatory orphan receptor GPR139” (Nature Communications, 2025).
